Assay results taken from PubChem BioAssay AID248 (DTP/NCI, 2004).
Values joined by “and” are separate entries in the source; they are usually repeats but may differ in a detail not shown here. Equal values may be shown once. Toxic doses and inconclusive results are not listed. Cut-off read from the data, not from the text of the source: active = T/C of 150% or more; inactive = T/C below 125%.

System: L1210 leukemia ip in BDF1 mice, survival T/C
Experiment: NCI In Vivo Anticancer Drug Screen. Data for tumor model L1210 Leukemia (intraperitoneal) in B6D2F1 (BDF1) mice
Settings: endpoint: mean survival time, higher = longer survival
In short: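 Ratio derived from survival: compound-dosed mice over vehicle-dosed mice, all bearing a transplantable tumor.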

[1] = dose: 100.0 mg/kg/injection, schedule: Q01DX001 (ip), vehicle: Klucel (hydroxypropylcellulose) (HPC)
[2] = dose: 200.0 mg/kg/injection, schedule: Q01DX001 (ip), vehicle: Klucel (hydroxypropylcellulose) (HPC)
[3] = dose: 50.0 mg/kg/injection, schedule: Q04DX003 (ip), vehicle: saline
[4] = dose: 100.0 mg/kg/injection, schedule: Q04DX003 (ip), vehicle: saline
[5] = dose: 100.0 mg/kg/injection, schedule: Q01DX009 (ip), vehicle: saline with Tween-80
[6] = dose: 100.0 mg/kg/injection, schedule: Q04DX003 (ip), vehicle: saline with Tween-80
[7] = dose: 200.0 mg/kg/injection, schedule: Q01DX009 (ip), vehicle: saline with Tween-80
[8] = dose: 200.0 mg/kg/injection, schedule: Q04DX003 (ip), vehicle: saline with Tween-80
[9] = dose: 400.0 mg/kg/injection, schedule: Q01DX009 (ip), vehicle: saline with Tween-80
[10] = dose: 100.0 mg/kg/injection, schedule: Q01DX001 (ip), vehicle: other
[11] = dose: 200.0 mg/kg/injection, schedule: Q01DX001 (ip), vehicle: other
[12] = dose: 400.0 mg/kg/injection, schedule: Q01DX001 (ip), vehicle: other
[13] = dose: 100.0 mg/kg/injection, schedule: Q01DX001 (ip), vehicle: saline
[14] = dose: 200.0 mg/kg/injection, schedule: Q01DX001 (ip), vehicle: saline
[15] = dose: 400.0 mg/kg/injection, schedule: Q01DX001 (ip), vehicle: saline
[16] = dose: 25.0 mg/kg/injection, schedule: Q04DX003 (ip), vehicle: saline
[17] = dose: 100.0 mg/kg/injection, schedule: Q04DX003 (ip), vehicle: Klucel (hydroxypropylcellulose) (HPC)
[18] = dose: 200.0 mg/kg/injection, schedule: Q04DX003 (ip), vehicle: Klucel (hydroxypropylcellulose) (HPC)
[19] = dose: 400.0 mg/kg/injection, schedule: Q04DX003 (ip), vehicle: Klucel (hydroxypropylcellulose) (HPC)
[20] = dose: 100.0 mg/kg/injection, schedule: Q01DX009 (ip), vehicle: Klucel (hydroxypropylcellulose) (HPC)
[21] = dose: 200.0 mg/kg/injection, schedule: Q01DX009 (ip), vehicle: Klucel (hydroxypropylcellulose) (HPC)
[22] = dose: 400.0 mg/kg/injection, schedule: Q01DX009 (ip), vehicle: Klucel (hydroxypropylcellulose) (HPC)

Measured: T/C

CC(C)C1C(C(C)C)N1C(=O)Nc1ccccc1 (stereo not given)
inactive: [1] 93 % of control | [2] 96 % of control | dose: 400.0 mg/kg/injection, schedule: Q01DX001 (ip), vehicle: Klucel (hydroxypropylcellulose) (HPC) 93 % of control

CC(=O)Nc1cc(N)cc(NC(C)=O)c1
inactive: dose: 50.0 mg/kg/injection, schedule: Q01DX009 (ip), vehicle: water 91 % of control | dose: 100.0 mg/kg/injection, schedule: Q01DX009 (ip), vehicle: water 103 % of control and 107 % of control | dose: 100.0 mg/kg/injection, schedule: Q04DX003 (ip), vehicle: water 100 % of control | dose: 200.0 mg/kg/injection, schedule: Q01DX009 (ip), vehicle: water 102 % of control and 103 % of control | dose: 200.0 mg/kg/injection, schedule: Q04DX003 (ip), vehicle: water 98 % of control | dose: 400.0 mg/kg/injection, schedule: Q01DX009 (ip), vehicle: water 93 % of control

CCOC(=N)CCl
inactive: [3] 101 % of control | [4] 95 % of control

COC(=O)N1c2ccccc2C=C(NC(C)=O)C1C#N (stereo not given)
inactive: [5] 117 % of control | [6] 103 % of control | [7] 98 % of control | [8] 95 % of control | [9] 98 % of control | dose: 400.0 mg/kg/injection, schedule: Q04DX003 (ip), vehicle: saline with Tween-80 94 % of control

CS(=O)(=O)Oc1c(Cl)cc(Cl)c2cccnc12
inactive: dose: 100.0 mg/kg/injection, schedule: Q01DX001 (ip), vehicle: carboxymethylcellulose (CMC) 102 % of control | dose: 200.0 mg/kg/injection, schedule: Q01DX001 (ip), vehicle: carboxymethylcellulose (CMC) 102 % of control | dose: 400.0 mg/kg/injection, schedule: Q01DX001 (ip), vehicle: carboxymethylcellulose (CMC) 111 % of control

Nc1nc2c(ncn2C(/C=N/Nc2ccccc2)OC(/C=N/Nc2ccccc2)CO)c(=O)[nH]1 (stereo not given)
inactive: [10] 98 % of control | [11] 106 % of control | [12] 108 % of control

CC1=CC(=O)N(CCl)C1=O
inactive: [6] 102 % of control | [8] 94 % of control

Cc1nnc(NS(=O)(=O)c2ccc(N=Nc3c(N)[nH]c(=O)[nH]c3=O)cc2)s1
inactive: [13] 96 % of control | [14] 111 % of control | [15] 98 % of control

COc1ccc2nc(-c3ccc(C)cc3)cc(C(=O)O)c2c1
inactive: [13] 92 % of control | [4] 96 % of control | [14] 106 % of control | dose: 200.0 mg/kg/injection, schedule: Q04DX003 (ip), vehicle: saline 94 % of control | [15] 88 % of control | dose: 400.0 mg/kg/injection, schedule: Q04DX003 (ip), vehicle: saline 97 % of control

O=C(CCCc1ccc(N(CCCl)CCCl)cc1)NCc1ccc(N(CCCl)CCCl)cc1
inactive: dose: 4.0 mg/kg/injection, schedule: Q12HX018 (sc), vehicle: other 103 % of control | dose: 6.0 mg/kg/injection, schedule: Q12HX018 (sc), vehicle: other 103 % of control | dose: 8.0 mg/kg/injection, schedule: Q12HX018 (sc), vehicle: other 100 % of control

O=C(Cc1ccccc1)OCC1CC2C=CC1C2 (stereo not given)
inactive: dose: 222.0 mg/kg/injection, schedule: Q01DX Z (ip), vehicle: methylcellulose (MC) 102 % of control | dose: 333.0 mg/kg/injection, schedule: Q01DX Z (ip), vehicle: methylcellulose (MC) 93 % of control | dose: 500.0 mg/kg/injection, schedule: Q01DX Z (ip), vehicle: methylcellulose (MC) 93 % of control

S=C(Nc1ccccc1)c1ccccn1
inactive: [5] 102 % of control | [7] 100 % of control | [9] 90 % of control

CCOC(=O)CN(CCN(CC)CC)c1ccc([N+](=O)[O-])cc1[N+](=O)[O-]
inactive: [10] 92 % of control | [11] 87 % of control | [12] 100 % of control

CCC(N)Cc1ccc2c(c1)OCO2 (stereo not given)
inactive: [16] 98 % of control | [3] 101 % of control | [4] 100 % of control

COc1ccc2c(c1)N(CCCN(C)C)c1ccccc1S2
inactive: dose: 4.68 mg/kg/injection, schedule: Q01DX009 (ip), vehicle: saline 118 % of control | dose: 9.37 mg/kg/injection, schedule: Q01DX009 (ip), vehicle: saline 115 % of control | dose: 18.75 mg/kg/injection, schedule: Q01DX009 (ip), vehicle: saline 115 % of control | dose: 18.75 mg/kg/injection, schedule: Q04DX003 (ip), vehicle: saline 104 % of control | dose: 37.5 mg/kg/injection, schedule: Q01DX009 (ip), vehicle: saline 118 % of control | dose: 37.5 mg/kg/injection, schedule: Q04DX003 (ip), vehicle: saline 114 % of control | dose: 75.0 mg/kg/injection, schedule: Q01DX009 (ip), vehicle: saline 95 % of control | dose: 75.0 mg/kg/injection, schedule: Q04DX003 (ip), vehicle: saline 121 % of control

C=COC(=O)CCCCCCCCCCCCCCCCC
inactive: [17] 101 % of control | [18] 100 % of control | [19] 103 % of control

COC1OC2COC(c3ccccc3)OC2C(O)C1NC(C)=O (stereo not given)
inactive: [1] 95 % of control | dose: 100.0 mg/kg/injection, schedule: Q01DX001 (ip), vehicle: saline with Tween-80 101 % of control | [2] 104 % of control | dose: 200.0 mg/kg/injection, schedule: Q01DX001 (ip), vehicle: saline with Tween-80 97 % of control | dose: 400.0 mg/kg/injection, schedule: Q01DX001 (ip), vehicle: saline with Tween-80 98 % of control

Cc1ccc(Cl)c(NC(=O)c2ccc(C(=O)Nc3cc(C)ccc3Cl)cc2)c1
inactive: [20] 87 % of control | [21] 88 % of control | [22] 91 % of control

C=C(C)/C=C/C1CCCCC1
inactive: dose: 50.0 mg/kg/injection, schedule: Q01DX009 (ip), vehicle: saline with Tween-80 95 % of control | [5] 106 % of control | [7] 95 % of control

O=S1(=O)CCCC1C(O)c1ccccc1 (stereo not given)
inactive: [17] 94 % of control and 98 % of control | [18] 105 % of control and 102 % of control | [19] 105 % of control and 94 % of control

O=C(Oc1c(Cl)cc(Cl)cc1C=Nc1ccc(Cl)cc1)c1ccccc1
inactive: [20] 103 % of control | [21] 104 % of control | [22] 96 % of control

C[CH2][Ge]1([CH2]C)[CH2]CC2(C[CH2]1)CN(CCCN(C)C)CN2
inactive: dose: 100.0 mg/kg/injection, schedule: Q04DX002 (ip), vehicle: saline 103 % of control

S=c1nc[nH]c2cc[nH]c12
inactive: [10] 95 % of control | [11] 98 % of control | [12] 101 % of control

CCCC[CH2][Sn](=[O])[CH2]CCCC
inactive: dose: 12.5 mg/kg/injection, schedule: Q04DX003 (ip), vehicle: saline 101 % of control | [16] 101 % of control | [3] 108 % of control | [13] 109 % of control | [14] 104 % of control | [15] 98 % of control

COC1OC(COC(C)=O)C(OC(C)=O)C1OC(C)=O (stereo not given)
inactive: [13] 102 % of control | [14] 104 % of control | [15] 93 % of control
